≈ marks a conversion by molar mass, not a printed value.
tested on: Staphylococcus aureus; assay: Antibacterial activity against Staphylococcus aureus ATCC 25923 after 24 hrs by micro broth dilution method; type: functional; conditions: ATCC 25923, 24 h

Row | Compound | MIC [µg/mL]
1 | N#CCN(Cc1ccccc1Cl)c1ccccc1 | 128 (≈ 499 µM)
2 | CCn1cc(C(=O)O)c(=O)c2cc(F)c(N3CCNCC3)cc21 [NORFLOXACIN] | 2 (≈ 6.26 µM)
3 | N#CCN(Cc1ccc(Cl)cc1)c1ccccc1 | 128 (≈ 499 µM)
4 | N#CCN(Cc1ccc(Cl)cc1Cl)c1ccccc1 | 256 (≈ 879 µM)
5 | CCCCCCCCCCN(CC#N)c1ccccc1 | 128 (≈ 470 µM)
6 | N#CCN(Cc1ccc(F)cc1)c1ccccc1 | 256 (≈ 1070 µM)

tested on: Aspergillus flavus; assay: Antifungal activity against Aspergillus flavus after 24 hrs by micro broth dilution method; type: functional; conditions: not given

Row | Compound | MIC [µg/mL]
7 | N#CCN(Cc1ccccc1Cl)c1ccccc1 | 128 (≈ 499 µM)
8 | N#CCN(Cc1ccc(Cl)cc1)c1ccccc1 | 256 (≈ 997 µM)
9 | N#CCN(Cc1ccc(Cl)cc1Cl)c1ccccc1 | 256 (≈ 879 µM)
10 | OC(Cn1cncn1)(Cn1cncn1)c1ccc(F)cc1F [FLUCONAZOLE] | 64 (≈ 209 µM)
11 | CCCCCCCCCCN(CC#N)c1ccccc1 | 128 (≈ 470 µM)
12 | N#CCN(Cc1ccc(F)cc1)c1ccccc1 | 128 (≈ 533 µM)

tested on: Candida albicans; assay: Antifungal activity against Candida albicans ATCC 90029 after 24 hrs by micro broth dilution method; type: functional; conditions: ATCC 90029, 24 h

Row | Compound | MIC [µg/mL]
13 | N#CCN(Cc1ccccc1Cl)c1ccccc1 | 128 (≈ 499 µM)
14 | N#CCN(Cc1ccc(Cl)cc1)c1ccccc1 | 128 (≈ 499 µM)
15 | N#CCN(Cc1ccc(Cl)cc1Cl)c1ccccc1 | 128 (≈ 440 µM)
16 | OC(Cn1cncn1)(Cn1cncn1)c1ccc(F)cc1F [FLUCONAZOLE] | 0.5 (≈ 1.63 µM)
17 | CCCCCCCCCCN(CC#N)c1ccccc1 | 128 (≈ 470 µM)
18 | N#CCN(Cc1ccc(F)cc1)c1ccccc1 | 64 (≈ 266 µM)

tested on: Staphylococcus aureus; assay: Antibacterial activity against methicillin-resistant Staphylococcus aureus N315 after 24 hrs by micro broth dilution method; type: functional; conditions: N315, 24 h

Row | Compound | MIC [µg/mL]
19 | N#CCN(Cc1ccccc1Cl)c1ccccc1 | 128 (≈ 499 µM)
20 | CCn1cc(C(=O)O)c(=O)c2cc(F)c(N3CCNCC3)cc21 [NORFLOXACIN] | 0.5 (≈ 1.57 µM)
21 | N#CCN(Cc1ccc(Cl)cc1)c1ccccc1 | 256 (≈ 997 µM)
22 | N#CCN(Cc1ccc(Cl)cc1Cl)c1ccccc1 | 256 (≈ 879 µM)
23 | CCCCCCCCCCN(CC#N)c1ccccc1 | 128 (≈ 470 µM)
24 | N#CCN(Cc1ccc(F)cc1)c1ccccc1 | 128 (≈ 533 µM)

tested on: Bacillus sp.; assay: Antibacterial activity against Bacillus proteus ATCC 13315 after 24 hrs by micro broth dilution method; type: functional; conditions: Bacillus sp. (in: firmicutes), ATCC 13315, 24 h

Row | Compound | MIC [µg/mL]
25 | N#CCN(Cc1ccccc1Cl)c1ccccc1 | 128 (≈ 499 µM)
26 | CCn1cc(C(=O)O)c(=O)c2cc(F)c(N3CCNCC3)cc21 [NORFLOXACIN] | 1 (≈ 3.13 µM)
27 | N#CCN(Cc1ccc(Cl)cc1)c1ccccc1 | 128 (≈ 499 µM)
28 | N#CCN(Cc1ccc(Cl)cc1Cl)c1ccccc1 | 256 (≈ 879 µM)
29 | CCCCCCCCCCN(CC#N)c1ccccc1 | 128 (≈ 470 µM)
30 | N#CCN(Cc1ccc(F)cc1)c1ccccc1 | 256 (≈ 1070 µM)

tested on: Escherichia coli; assay: Antibacterial activity against Escherichia coli DH52 after 24 hrs by micro broth dilution method; type: functional; conditions: DH52, 24 h

Row | Compound | MIC [µg/mL]
31 | N#CCN(Cc1ccccc1Cl)c1ccccc1 | 256 (≈ 997 µM)
32 | CCn1cc(C(=O)O)c(=O)c2cc(F)c(N3CCNCC3)cc21 [NORFLOXACIN] | 0.5 (≈ 1.57 µM)
33 | N#CCN(Cc1ccc(Cl)cc1)c1ccccc1 | 128 (≈ 499 µM)
34 | N#CCN(Cc1ccc(Cl)cc1Cl)c1ccccc1 | 128 (≈ 440 µM)
35 | CCCCCCCCCCN(CC#N)c1ccccc1 | 64 (≈ 235 µM)
36 | N#CCN(Cc1ccc(F)cc1)c1ccccc1 | 128 (≈ 533 µM)

tested on: Micrococcus luteus; assay: Antibacterial activity against Micrococcus luteus ATCC 4698 after 24 hrs by micro broth dilution method; type: functional; conditions: ATCC 4698, 24 h

Row | Compound | MIC [µg/mL]
37 | N#CCN(Cc1ccccc1Cl)c1ccccc1 | 256 (≈ 997 µM)
38 | CCn1cc(C(=O)O)c(=O)c2cc(F)c(N3CCNCC3)cc21 [NORFLOXACIN] | 0.5 (≈ 1.57 µM)
39 | N#CCN(Cc1ccc(Cl)cc1)c1ccccc1 | 128 (≈ 499 µM)
40 | N#CCN(Cc1ccc(Cl)cc1Cl)c1ccccc1 | 256 (≈ 879 µM)
41 | CCCCCCCCCCN(CC#N)c1ccccc1 | 128 (≈ 470 µM)
42 | N#CCN(Cc1ccc(F)cc1)c1ccccc1 | 512 (≈ 2130 µM)

tested on: Bacillus spizizenii; assay: Antibacterial activity against Bacillus subtilis ATCC 6633 after 24 hrs by micro broth dilution method; type: functional; conditions: ATCC 6633, 24 h

Row | Compound | MIC [µg/mL]
43 | N#CCN(Cc1ccccc1Cl)c1ccccc1 | 256 (≈ 997 µM)
44 | CCn1cc(C(=O)O)c(=O)c2cc(F)c(N3CCNCC3)cc21 [NORFLOXACIN] | 1 (≈ 3.13 µM)
45 | N#CCN(Cc1ccc(Cl)cc1)c1ccccc1 | 128 (≈ 499 µM)
46 | N#CCN(Cc1ccc(Cl)cc1Cl)c1ccccc1 | 128 (≈ 440 µM)
47 | CCCCCCCCCCN(CC#N)c1ccccc1 | 64 (≈ 235 µM)
48 | N#CCN(Cc1ccc(F)cc1)c1ccccc1 | 128 (≈ 533 µM)

tested on: Candida; assay: Antifungal activity against Candida mycoderma after 24 hrs by micro broth dilution method; type: functional; conditions: not given

Row | Compound | MIC [µg/mL]
49 | N#CCN(Cc1ccccc1Cl)c1ccccc1 | 64 (≈ 249 µM)
50 | N#CCN(Cc1ccc(Cl)cc1)c1ccccc1 | 128 (≈ 499 µM)
51 | N#CCN(Cc1ccc(Cl)cc1Cl)c1ccccc1 | 64 (≈ 220 µM)
52 | OC(Cn1cncn1)(Cn1cncn1)c1ccc(F)cc1F [FLUCONAZOLE] | 2 (≈ 6.53 µM)
53 | CCCCCCCCCCN(CC#N)c1ccccc1 | 128 (≈ 470 µM)
54 | N#CCN(Cc1ccc(F)cc1)c1ccccc1 | 128 (≈ 533 µM)

tested on: Cyberlindnera jadinii; assay: Antifungal activity against Candida utilis ATCC 9950 after 24 hrs by micro broth dilution method; type: functional; conditions: Williopsis jadinii, ATCC 9950, 24 h

Row | Compound | MIC [µg/mL]
55 | N#CCN(Cc1ccccc1Cl)c1ccccc1 | 64 (≈ 249 µM)
56 | N#CCN(Cc1ccc(Cl)cc1)c1ccccc1 | 128 (≈ 499 µM)
57 | N#CCN(Cc1ccc(Cl)cc1Cl)c1ccccc1 | 128 (≈ 440 µM)
58 | OC(Cn1cncn1)(Cn1cncn1)c1ccc(F)cc1F [FLUCONAZOLE] | 1 (≈ 3.27 µM)
59 | CCCCCCCCCCN(CC#N)c1ccccc1 | 256 (≈ 940 µM)
60 | N#CCN(Cc1ccc(F)cc1)c1ccccc1 | 128 (≈ 533 µM)

tested on: Shigella dysenteriae; assay: Antibacterial activity against Shigella dysenteriae ATCC 51252 after 24 hrs by micro broth dilution method; type: functional; conditions: ATCC 51252, 24 h

Row | Compound | MIC [µg/mL]
61 | N#CCN(Cc1ccccc1Cl)c1ccccc1 | 128 (≈ 499 µM)
62 | CCn1cc(C(=O)O)c(=O)c2cc(F)c(N3CCNCC3)cc21 [NORFLOXACIN] | 0.5 (≈ 1.57 µM)
63 | N#CCN(Cc1ccc(Cl)cc1)c1ccccc1 | 128 (≈ 499 µM)
64 | N#CCN(Cc1ccc(Cl)cc1Cl)c1ccccc1 | 256 (≈ 879 µM)
65 | CCCCCCCCCCN(CC#N)c1ccccc1 | 512 (≈ 1880 µM)
66 | N#CCN(Cc1ccc(F)cc1)c1ccccc1 | 128 (≈ 533 µM)

tested on: Pseudomonas aeruginosa; assay: Antibacterial activity against Pseudomonas aeruginosa ATCC 27853 after 24 hrs by micro broth dilution method; type: functional; conditions: ATCC 27853, 24 h

Row | Compound | MIC [µg/mL]
67 | N#CCN(Cc1ccccc1Cl)c1ccccc1 | 128 (≈ 499 µM)
68 | CCn1cc(C(=O)O)c(=O)c2cc(F)c(N3CCNCC3)cc21 [NORFLOXACIN] | 0.5 (≈ 1.57 µM)
69 | N#CCN(Cc1ccc(Cl)cc1)c1ccccc1 | 64 (≈ 249 µM)
70 | N#CCN(Cc1ccc(Cl)cc1Cl)c1ccccc1 | 256 (≈ 879 µM)
71 | CCCCCCCCCCN(CC#N)c1ccccc1 | 256 (≈ 940 µM)
72 | N#CCN(Cc1ccc(F)cc1)c1ccccc1 | 256 (≈ 1070 µM)
